Results on three molecules are retold here after article PMC4925161, “EssC: domain structures inform on the elusive translocation channel in the Type VII secretion system” (Biochemical Journal, 2016).

Data set [1] addresses T1, EssC-C (Geobacillus thermodenitrificans, UniProt A4IKE7). Briefly: fluorescence titration (excitation […] nm, emission […] nm). Type of data set: binding. Details: gene eccC; C-terminal fragment, residues 966-1479 (ATPase modules D2 and D3); N-terminal His6 tag removed with TEV; E. coli host.
For data set [2], the target named is T1, EssC-C. More on the design: gene eccC. Conditions: D2 nucleotide site; ATP modelled in the second molecule (mant density ambiguous, crystal grown with mant-ATP); also present in SeMet structure without added nucleotide; displaces mant-ATP.
Data set [3] concerns the molecule itself. The data set is described as follows: native gel or EMSA; blue native PAGE, linear 4-12% gradient native Bis-Tris gels; 8 ug purified EssC-C or 5 ug full-length EssC (DDM-solubilized) loaded; band identity by peptide mass fingerprinting. (Mobility shift assays separate free from complexed probe on a gel.)

As a reminder, the Kd is the free concentration of one partner at which half of the binding sites on the other are occupied at equilibrium, for simple one-to-one binding. Regarding `CNc1ccccc1C(=O)O[C@H]1[C@@H](O)[C@H](n2cnc3c(N)ncnc32)O[C@@H]1CO[P@@](=O)(O)O[P@](=O)(O)OP(=O)(O)O` (mixture of isomers) [mant-ATP, 2′/3′-(N-methyl-anthraniloyl)-adenosine-5′-triphosphate], the equilibrium dissociation constant (Kd) on EssC-C [1] was found to be 940 ± 110 nM. Consider `Nc1ncnc2c1ncn2[C@@H]1O[C@H](COP(=O)(O)OP(=O)(O)OP(=O)(O)O)[C@@H](O)[C@H]1O` [ATP], for which the “X-ray crystal structure (2.9 Å); displacement of mant-ATP fluorescence” value on EssC-C [2] was “ATP was present in the nucleotide-binding site of the D2 module”.

B1: full-length membrane-bound EssC from Geobacillus thermodenitrificans NG80-2 (natural protein, UniProt A4IKE7 1-1479, looked up)
chain: MSQLWVLYETYCQLFSLTNEEKVIVIGNQLEHHVTVSSFSFRNGYIQIEKKSDGSTLAVLQGGRQIGELKPRCSITIDVDGQQMTIAWSGEEQRKYVYYVGQQSEVLVSNDPQADIETTNARFSLRKHRGQWVVIPDDDAPLFLNGVQLSDAVSLRNGDVLLCPYMQFVFIEEDLLAVTSSEEVVSSLTETMPPLSEMKKKYPMYRRTPRMIYELPSDKVSISFPSQEGDGDPRGLWLMVLPPVMMLLVIGAVALIQPRGVFIMISIAMFATTIVTSTAQYMREKKARQMRKEKRRRIYTNYLEQKREELQALSEKQRNVLYYHFPSFEQMKSFVMQVNSRIWERTAESADFLHVRIGTADVPATYEVSVSMGDLANREIDDLLEQAQHIAKVYQTVKHVPLPIDVSHGAIGMVGKRSIVNGEIEQLVGQIAFFHSYHDVRFVAIFSEDDYKHWEWMKWLPHFQLPNSFAKGLIYNEQTRDQLLSSIYEMLRERALDEEKDKKRFSPHFVFIVADRSLIAEHVILEYLEEKNEDIGISVIFASETKESLTENVHTLVQYINEREGEIVIQHRKAAHIPFQLDEHSTEGNESFARMLRSLNHQKGMSNSIPEKVTFLEMMQTRRANELQIVQNWLSCQTSRSLAVPIGLKGRNDVVELNLHEKAHGPHGLVAGTTGSGKSELLQTYILSLAVHFHPHEVAFLIIDYKGGGMAQPFKNMPHLLGTITNIHGSKNFSARALASINSELKKRQRLFDRYEVNHINDYMELYKQGKAEQPLPHLFLIADEFAELKSEEPDFIRELVSAARIGRSLGVHLILATQKPRGVIDEQIWSNARFRISLKMQDVNDSKEILRNGDAAAITVPGRAYLQVGNNEVYELFQSAWSGAPYVEEGVEAEDEIHIVTDLGLVPVSNVATDRKRSRQKPKTEIEMVVEQIIETQKQLNIEKLPSPWLPPLPPRLARPASVTAEANAFPIGLKDEPELQSQSDYFYQWLEDGNIGIFGSAGYGKSTTMMTLLLSFAGAYNPAQLHYYIFDFGNSALLPLRQLPHTADYFRLDDEKKIEKFIKFMKEEMEQRKQRFMEKEVSTIKLYNALSEEKLPIIIVALDNFDVVKEEMPDFETQLIQYARDGQSLGIFFIMTATRVSGIRPPLMNNLKTKIVHYFIDSSEKFSLIGRTPYDVDPIPGRALIKKDNAALTQIYLPADGEDDIEVLENVKREMERLKEVYQHIPKPKPIPMLPPRLSMSVFTNTYVQHRASGFIPVGLDEQTVRPVAINMRTDPHCLIVGQSRKGKTNVVKVILESLLVQEPESIGLLDGIDRGLAGYANRDDITYIEAKERLAQWLNEADAVLQQREREYIQAVNENRATTLAWPPVVFVVDSLLRLQQETDSIMQGRIANMMKQYSHLGFHVFVAGNANEFVKGFDALTAELKQIRQAILVTKKSEQSLFALPFTRNEQEIEPGFGYFVVGGKDQKIQIPKVE
notes: also called full-length EssC; full-length recombinant protein; source: E. coli LEMO21(DE3), membranes solubilized with DDM, purified (His-Trap, SEC on Superdex 200 with 0.03% DDM)
Usually stoichiometry N stands for the number of molecules, sites or subunits per partner or assembly. Consider B1, for which the “stoichiometry N” value in data set [3] is about 6.
